According to PubChem BioAssay (NCI):
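Grown in 96-well plates, cells were treated for 48 hours with each compound at five concentrations. Insufficient inhibition: endpoint recorded as highest concentration tested. GI50 is the concentration that inhibits growth by half. The concentration for full growth arrest is given as TGI.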

How the values were obtained:
Experiment in all cases: NCI tumour cell line growth inhibition, 48 h
NCI-H23 lung = test system: NCI-H23 lung
HCC-2998 colon = test system: HCC-2998 colon
LOX IMVI melanoma = test system: LOX IMVI melanoma
NCI/ADR-RES ovarian = test system: NCI/ADR-RES ovarian
HCT-116 colon = test system: HCT-116 colon
A498 renal = test system: A498 renal
MALME-3M melanoma = test system: MALME-3M melanoma
A549 NSCLC = test system: A549 NSCLC
M14 melanoma = test system: M14 melanoma
COLO 205 colon = test system: COLO 205 colon
IGROV1 ovarian = test system: IGROV1 ovarian
TK-10 renal = test system: TK-10 renal
MDA-MB-435 = test system: MDA-MB-435
HOP-62 NSCLC = test system: HOP-62 NSCLC
OVCAR-8 ovarian = test system: OVCAR-8 ovarian
SK-MEL-2 melanoma = test system: SK-MEL-2 melanoma
MOLT-4 leukemia = test system: MOLT-4 leukemia
K-562 leukemia = test system: K-562 leukemia
SF-539 CNS = test system: SF-539 CNS
SN12C renal = test system: SN12C renal
NCI-H522 lung = test system: NCI-H522 lung
OVCAR-3 ovarian = test system: OVCAR-3 ovarian
SF-295 CNS = test system: SF-295 CNS
CCRF-CEM leukemia = test system: CCRF-CEM leukemia
PC-3 prostate = test system: PC-3 prostate
SW-620 colon = test system: SW-620 colon
HL-60(TB) leukemia = test system: HL-60(TB) leukemia
RPMI-8226 leukemia = test system: RPMI-8226 leukemia
HT29 colon = test system: HT29 colon
OVCAR-5 ovarian = test system: OVCAR-5 ovarian
SR leukemia = test system: SR leukemia
NCI-H226 lung = test system: NCI-H226 lung
SNB-19 CNS = test system: SNB-19 CNS
SK-MEL-28 melanoma = test system: SK-MEL-28 melanoma
CAKI-1 renal = test system: CAKI-1 renal
UACC-257 melanoma = test system: UACC-257 melanoma
ACHN renal = test system: ACHN renal
BT-549 breast = test system: BT-549 breast
HS 578T breast = test system: HS 578T breast
MDA-MB-231 breast = test system: MDA-MB-231 breast
DU-145 prostate = test system: DU-145 prostate
UACC-62 melanoma = test system: UACC-62 melanoma
KM12 colon = test system: KM12 colon
786-0 renal = test system: 786-0 renal
HCT-15 colon = test system: HCT-15 colon
NCI-H460 lung = test system: NCI-H460 lung
SF-268 CNS = test system: SF-268 CNS
SK-OV-3 ovarian = test system: SK-OV-3 ovarian
U251 CNS = test system: U251 CNS
HOP-92 NSCLC = test system: HOP-92 NSCLC
T-47D breast = test system: T-47D breast
SNB-75 CNS = test system: SNB-75 CNS
UO-31 renal = test system: UO-31 renal
SK-MEL-5 melanoma = test system: SK-MEL-5 melanoma
EKVX NSCLC = test system: EKVX NSCLC
MCF7 breast = test system: MCF7 breast
OVCAR-4 ovarian = test system: OVCAR-4 ovarian
RXF 393 renal = test system: RXF 393 renal

CCC(=O)c1c(C(F)(F)F)n([O-])c2ccccc2[n+]1=O
GI50 (NCI-H23 lung): 1.1 µM | TGI (NCI-H23 lung): 4.37 µM | GI50 (HCC-2998 colon): 1.68 µM | TGI (HCC-2998 colon): 6.31 µM | GI50 (LOX IMVI melanoma): 1.39 µM | TGI (LOX IMVI melanoma): 3.38 µM | GI50 (NCI/ADR-RES ovarian): 1.36 µM | TGI (NCI/ADR-RES ovarian): 13.3 µM | GI50 (HCT-116 colon): 1.56 µM | TGI (HCT-116 colon): 8.83 µM | GI50 (A498 renal): 2.67 µM | TGI (A498 renal): 9.03 µM | GI50 (MALME-3M melanoma): 1.69 µM | TGI (MALME-3M melanoma): 6.16 µM | GI50 (A549 NSCLC): 2.3 µM | TGI (A549 NSCLC): 11.4 µM | GI50 (M14 melanoma): 1.7 µM | TGI (M14 melanoma): 6.19 µM | GI50 (COLO 205 colon): 2.06 µM | TGI (COLO 205 colon): 6.51 µM | GI50 (IGROV1 ovarian): 1.38 µM | TGI (IGROV1 ovarian): > 100 µM | GI50 (TK-10 renal): 2.81 µM | TGI (TK-10 renal): 14.5 µM | GI50 (MDA-MB-435): 2.41 µM | TGI (MDA-MB-435): 10.4 µM | GI50 (HOP-62 NSCLC): 0.7 µM | TGI (HOP-62 NSCLC): 3.54 µM | GI50 (OVCAR-8 ovarian): 1.77 µM | TGI (OVCAR-8 ovarian): > 32 µM | GI50 (SK-MEL-2 melanoma): 14.9 µM | TGI (SK-MEL-2 melanoma): > 100 µM | GI50 (MOLT-4 leukemia): 0.577 µM | TGI (MOLT-4 leukemia): > 100 µM | GI50 (K-562 leukemia): 1.35 µM | TGI (K-562 leukemia): 33.3 µM | GI50 (SF-539 CNS): 2.81 µM | TGI (SF-539 CNS): 10.2 µM | GI50 (SN12C renal): 1.98 µM | TGI (SN12C renal): 7.29 µM | GI50 (NCI-H522 lung): 2.36 µM | TGI (NCI-H522 lung): > 21.4 µM | GI50 (OVCAR-3 ovarian): 1.74 µM | TGI (OVCAR-3 ovarian): 6.35 µM | GI50 (SF-295 CNS): 1.59 µM | TGI (SF-295 CNS): 7.29 µM | GI50 (CCRF-CEM leukemia): 0.621 µM | TGI (CCRF-CEM leukemia): 10.5 µM | GI50 (PC-3 prostate): 0.629 µM | TGI (PC-3 prostate): 5.34 µM | GI50 (SW-620 colon): 2.65 µM | TGI (SW-620 colon): 17.4 µM | GI50 (HL-60(TB) leukemia): 3.03 µM | TGI (HL-60(TB) leukemia): > 100 µM | GI50 (RPMI-8226 leukemia): 0.694 µM | TGI (RPMI-8226 leukemia): 3.69 µM | GI50 (HT29 colon): 1.41 µM | TGI (HT29 colon): 11 µM | GI50 (OVCAR-5 ovarian): 3.89 µM | TGI (OVCAR-5 ovarian): 13.1 µM | GI50 (SR leukemia): 0.193 µM | TGI (SR leukemia): 10.3 µM | GI50 (NCI-H226 lung): 2.09 µM | TGI (NCI-H226 lung): 9.06 µM | GI50 (SNB-19 CNS): 5.07 µM | TGI (SNB-19 CNS): 32.6 µM | GI50 (SK-MEL-28 melanoma): 8.84 µM | TGI (SK-MEL-28 melanoma): 44.6 µM | GI50 (CAKI-1 renal): 1.54 µM | TGI (CAKI-1 renal): 6.03 µM | GI50 (UACC-257 melanoma): 10.8 µM | TGI (UACC-257 melanoma): 35.3 µM | GI50 (ACHN renal): 1.09 µM | TGI (ACHN renal): 3.13 µM | GI50 (BT-549 breast): 2 µM | TGI (BT-549 breast): 6.13 µM | GI50 (HS 578T breast): 3.17 µM | TGI (HS 578T breast): 30.5 µM | GI50 (MDA-MB-231 breast): 2.23 µM | TGI (MDA-MB-231 breast): 7.93 µM | GI50 (DU-145 prostate): 1.59 µM | TGI (DU-145 prostate): 3.27 µM | GI50 (UACC-62 melanoma): 1.65 µM | TGI (UACC-62 melanoma): 4.64 µM | GI50 (KM12 colon): 1.86 µM | TGI (KM12 colon): 5.86 µM | GI50 (786-0 renal): 1.66 µM | TGI (786-0 renal): 8.17 µM | GI50 (HCT-15 colon): 1.09 µM | TGI (HCT-15 colon): 4.88 µM | GI50 (NCI-H460 lung): 0.695 µM | TGI (NCI-H460 lung): 2.6 µM | GI50 (SF-268 CNS): 1.22 µM | TGI (SF-268 CNS): 6.34 µM | GI50 (SK-OV-3 ovarian): 3.05 µM | TGI (SK-OV-3 ovarian): 14 µM | GI50 (U251 CNS): 2.16 µM | TGI (U251 CNS): 13 µM | GI50 (HOP-92 NSCLC): 1.5 µM | TGI (HOP-92 NSCLC): 6.08 µM | GI50 (T-47D breast): 2.27 µM | TGI (T-47D breast): 31.1 µM | GI50 (SNB-75 CNS): 3.79 µM | TGI (SNB-75 CNS): 24.8 µM | GI50 (UO-31 renal): 0.829 µM | TGI (UO-31 renal): > 20.2 µM | GI50 (SK-MEL-5 melanoma): 0.961 µM | TGI (SK-MEL-5 melanoma): 2.64 µM | GI50 (EKVX NSCLC): 2 µM | TGI (EKVX NSCLC): 7.32 µM | GI50 (MCF7 breast): 1.08 µM | TGI (MCF7 breast): 6.72 µM | GI50 (OVCAR-4 ovarian): 5.65 µM | TGI (OVCAR-4 ovarian): 31.2 µM | GI50 (RXF 393 renal): 1.67 µM | TGI (RXF 393 renal): 10.2 µM
